Tests used:
Hepatotoxicity [1] = test system: Hepatotoxicity;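 for HepSE Combined Scores: combined hepatic side effect score as listed in the training data of the Drug Induced Liver Injury Prediction System (DILIps)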;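 for HepSE bilirubinemia: bilirubinemia hepatic side effect score drawn from the DILIps training data, a prediction system for drug-induced liver injury; call rule not given here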;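 for HepSE cholecystitis: Cholecystitis-related hepatic side effect score drawn from the DILIps (drug-induced liver injury prediction) training data set; call rule not given here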;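 for HepSE cholelithiasis: hepatic side effect score for cholelithiasis, drawn from the DILIps training data for predicting drug-induced liver injury; call rule not given here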; for HepSE hepatic failure: call rule not given here;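 for HepSE jaundice: Jaundice-related hepatic side-effect score drawn from the training data of the DILIps (drug-induced liver injury prediction system); call rule not given here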; for HepSE liver disease: call rule not given here
Hepatotoxicity [2] = test system: Hepatotoxicity; remark: listed apart in the source;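 for HepSE Combined Scores: combined hepatic side effect score as listed in the training data of the Drug Induced Liver Injury Prediction System (DILIps)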;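 for HepSE bilirubinemia: bilirubinemia hepatic side effect score drawn from the DILIps training data, a prediction system for drug-induced liver injury; call rule not given here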;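 for HepSE cholecystitis: Cholecystitis-related hepatic side effect score drawn from the DILIps (drug-induced liver injury prediction) training data set; call rule not given here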;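 for HepSE cholelithiasis: hepatic side effect score for cholelithiasis, drawn from the DILIps training data for predicting drug-induced liver injury; call rule not given here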; for HepSE hepatic failure: call rule not given here;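 for HepSE jaundice: Jaundice-related hepatic side-effect score drawn from the training data of the DILIps (drug-induced liver injury prediction system); call rule not given here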; for HepSE liver disease: call rule not given here
Hepatotoxicity [3] = test system: Hepatotoxicity; remark: listed apart in the source;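 for HepSE Combined Scores: combined hepatic side effect score as listed in the training data of the Drug Induced Liver Injury Prediction System (DILIps)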;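 for HepSE bilirubinemia: bilirubinemia hepatic side effect score drawn from the DILIps training data, a prediction system for drug-induced liver injury; call rule not given here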;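 for HepSE cholecystitis: Cholecystitis-related hepatic side effect score drawn from the DILIps (drug-induced liver injury prediction) training data set; call rule not given here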;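 for HepSE cholelithiasis: hepatic side effect score for cholelithiasis, drawn from the DILIps training data for predicting drug-induced liver injury; call rule not given here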; for HepSE hepatic failure: call rule not given here;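 for HepSE jaundice: Jaundice-related hepatic side-effect score drawn from the training data of the DILIps (drug-induced liver injury prediction system); call rule not given here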; for HepSE liver disease: call rule not given here
Hepatotoxicity [4] = test system: Hepatotoxicity; remark: listed apart in the source;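 for HepSE Combined Scores: combined hepatic side effect score as listed in the training data of the Drug Induced Liver Injury Prediction System (DILIps)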;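 for HepSE bilirubinemia: bilirubinemia hepatic side effect score drawn from the DILIps training data, a prediction system for drug-induced liver injury; call rule not given here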;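 for HepSE cholecystitis: Cholecystitis-related hepatic side effect score drawn from the DILIps (drug-induced liver injury prediction) training data set; call rule not given here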;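 for HepSE cholelithiasis: hepatic side effect score for cholelithiasis, drawn from the DILIps training data for predicting drug-induced liver injury; call rule not given here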; for HepSE hepatic failure: call rule not given here;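 for HepSE jaundice: Jaundice-related hepatic side-effect score drawn from the training data of the DILIps (drug-induced liver injury prediction system); call rule not given here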; for HepSE liver disease: call rule not given here
Hepatotoxicity [5] = test system: Hepatotoxicity; remark: listed apart in the source; for HepSE hepatic failure: call rule not given here; for HepSE liver disease: call rule not given here
Hepatotoxicity [6] = test system: Hepatotoxicity; remark: listed apart in the source; for HepSE liver disease: call rule not given here
Hepatotoxicity [7] = test system: Hepatotoxicity; remark: listed apart in the source
Hepatotoxicity [8] = test system: Hepatotoxicity; remark: listed apart in the source
Hepatotoxicity [9] = test system: Hepatotoxicity; remark: listed apart in the source
Hepatotoxicity [10] = test system: Hepatotoxicity; remark: listed apart in the source
Hepatotoxicity [11] = test system: Hepatotoxicity; remark: listed apart in the source
Hepatotoxicity [12] = test system: Hepatotoxicity; remark: listed apart in the source
Hepatotoxicity [13] = test system: Hepatotoxicity; remark: listed apart in the source
Hepatotoxicity [14] = test system: Hepatotoxicity; remark: listed apart in the source

Row | SMILES | HepSE_bilirubinemia (Hepatotoxicity [1]) | HepSE_Combined Scores (Hepatotoxicity [2]) | HepSE_cholelithiasis (Hepatotoxicity [3]) | HepSE_liver fatty (Hepatotoxicity [4]) | HepSE_jaundice (Hepatotoxicity [5]) | HepSE_hepatic necrosis (Hepatotoxicity [6]) | HepSE_liver disease (Hepatotoxicity [7]) | HepSE_cholecystitis (Hepatotoxicity [8]) | HepSE_hepatitis (Hepatotoxicity [9]) | HepSE_hepatic failure (Hepatotoxicity [10]) | HepSE_cirrhosis (Hepatotoxicity [11]) | HepSE_hepatomegaly (Hepatotoxicity [12]) | HepSE_elevated liver function tests (Hepatotoxicity [13]) | HepSE_liver function tests abnormal (Hepatotoxicity [14])
1 | CCOC(=O)[C@H](CCc1ccccc1)N[C@H]1CCc2ccccc2N(CC(=O)O)C1=O [BENAZEPRIL] | 0 | 2 | 0 | 0 | 1 | 0 | 0 | 0 | 1 | 0 | 0 | 0 | 0 | 0
2 | NS(=O)(=O)c1cc2c(cc1C(F)(F)F)NC(Cc1ccccc1)NS2(=O)=O (stereo not drawn) [BENDROFLUMETHIAZIDE] | 0 | 2 | 0 | 0 | 1 | 0 | 0 | 0 | 1 | 0 | 0 | 0 | 0 | 0
3 | O=C(OOC(=O)c1ccccc1)c1ccccc1 [BENZOYL PEROXIDE] | 0 | 0 | 0 | 0 | 0 | 0 | 0 | 0 | 0 | 0 | 0 | 0 | 0 | 0
4 | CN1[C@@H]2CC[C@H]1C[C@@H](OC(c1ccccc1)c1ccccc1)C2 [BENZTROPINE] | 0 | 0 | 0 | 0 | 0 | 0 | 0 | 0 | 0 | 0 | 0 | 0 | 0 | 0
5 | CN(C)CCCOc1nn(Cc2ccccc2)c2ccccc12 [BENZYDAMINE] | 0 | 0 | 0 | 0 | 0 | 0 | 0 | 0 | 0 | 0 | 0 | 0 | 0 | 0
6 | CNCCc1ccccn1 [BETAHISTINE] | 0 | 0 | 0 | 0 | 0 | 0 | 0 | 0 | 0 | 0 | 0 | 0 | 0 | 0
7 | C[N+](C)(C)CC(=O)O [BETAINE] | 0 | 0 | 0 | 0 | 0 | 0 | 0 | 0 | 0 | 0 | 0 | 0 | 0 | 0

Source: ChEMBL document CHEMBL1909294, “Translating clinical findings into knowledge in drug safety evaluation--drug induced liver injury prediction system (DILIps)” (PLoS Comput Biol, 2011)
